In patent US6953779B2, “Melanocortin receptor antagonists and modulations of melanocortin receptor activity” (The Regents of the University of California, priority 1998, dated 2005):
Peptide text beside a SMILES is read from it. * marks the point of attachment. Benzoyl(3-OMe) = COc1cccc(C(=O)*)c1

Key:
[1] = target: T1, MC receptors endogenous to Xenopus melanophores (Xenopus laevis, UniProt A0A1L8GF34); conditions: Quillan and Sadée 1997, cited from earlier work
T1 sequence (A0A1L8GF34 1-317): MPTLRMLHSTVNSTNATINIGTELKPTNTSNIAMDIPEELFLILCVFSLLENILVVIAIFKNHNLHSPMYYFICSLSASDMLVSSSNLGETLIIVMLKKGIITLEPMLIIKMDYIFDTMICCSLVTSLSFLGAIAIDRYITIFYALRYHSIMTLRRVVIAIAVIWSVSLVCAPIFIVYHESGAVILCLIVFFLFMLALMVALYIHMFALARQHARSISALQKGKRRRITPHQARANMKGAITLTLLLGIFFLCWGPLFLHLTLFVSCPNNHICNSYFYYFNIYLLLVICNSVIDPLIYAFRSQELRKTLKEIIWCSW

[2] = target: T2, ACTH (MCR-2) receptor endogenous to murine Y1 adrenocortical cells (Mus musculus, UniProt Q64326); assay: cAMP concentration-response to ACTH-(1-24) in Y1 cells; assay type: cell-based; conditions: for shift of the concentration-response curve of ACTH-(1-24) to the right: 30 μM
T2 construct: the ACTH (MCR-2) receptor endogenous to murine Y1 adrenocortical cells; endogenous in cells; host or cells: murine Y1 adrenocortical cells
T2 sequence (Q64326 whole entry): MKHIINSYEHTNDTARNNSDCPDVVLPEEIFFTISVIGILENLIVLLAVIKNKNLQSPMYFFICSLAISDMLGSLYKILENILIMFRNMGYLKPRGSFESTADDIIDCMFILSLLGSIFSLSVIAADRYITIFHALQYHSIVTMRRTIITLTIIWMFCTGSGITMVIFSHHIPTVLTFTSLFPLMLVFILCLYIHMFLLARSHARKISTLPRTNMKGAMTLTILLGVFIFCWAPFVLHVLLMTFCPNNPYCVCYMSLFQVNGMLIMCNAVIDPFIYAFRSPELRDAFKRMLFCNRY
T2 sequence (Q9D159 whole entry partner): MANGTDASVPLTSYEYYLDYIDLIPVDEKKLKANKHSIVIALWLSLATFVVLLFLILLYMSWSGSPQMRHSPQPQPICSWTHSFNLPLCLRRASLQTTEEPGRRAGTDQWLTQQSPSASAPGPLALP
Experimental: (§1) Peptide concentration-response measurements are made in HEK-293 cells by quantifying cAMP levels using a [8-^3H]-CAMP kit from Amersham. Briefly, cells transfected with MC receptors, plated to confluency in 96-well tissue culture plates, are rinsed for 1 hr with 70% (vol/vol) L-15 medium containing 0.5% bovine serum albumin. […] Cellular debris was separated from extracted samples by centrifugation, 400 μL aliquots of the supernatant lyophilized, and total cAMP content quantified by isotope counting.
(§2) Concentration response measurements were made also as described in Example 2, but in Xenopus fibroblasts, COS-7, HEK-293, and Y1 cells.

[3] = target: T3, MCR-1 (Homo sapiens, UniProt Q01726); assay: cAMP concentration-response to α-MSH in HEK-293 cells transfected with human MCR-1; assay type: cell-based; set-up: expressed in transfected cells; conditions: presence and absence of 30 μM antagonist
T3 sequence (Q01726 whole entry): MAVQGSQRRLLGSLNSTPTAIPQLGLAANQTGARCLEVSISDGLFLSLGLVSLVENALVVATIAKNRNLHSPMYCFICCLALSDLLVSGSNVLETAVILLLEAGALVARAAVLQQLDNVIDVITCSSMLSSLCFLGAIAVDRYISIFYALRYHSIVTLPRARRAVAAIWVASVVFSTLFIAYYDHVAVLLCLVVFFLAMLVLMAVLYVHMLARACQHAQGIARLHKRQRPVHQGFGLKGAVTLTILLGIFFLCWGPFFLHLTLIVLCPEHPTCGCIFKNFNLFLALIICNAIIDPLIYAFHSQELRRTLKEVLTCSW
From the text: (§3) A second method for studying MCR antagonists is to use mammalian cells stably transfected with the cDNA for various human MCR. These transfected cells manifest an increased CAMP response to α-MSH stimulation and agents which antagonize MCR will block this stimulating effect of α-MSH. The inhibitory effects of antagonists can be quantified by the change in the effective concentration (EC50) of α-MSH i the presence of antagonist, or by computation of Ki value by a Schild regression analysis.
Human embryonic kidney (HEK-293) cells were maintained in modified Eagle's medium (DMEM/H-16/F-12) with 10% fetal calf serum (FBS), 100 U/mL penicillin “G” and 100 μg/mL streptomycin (P/S; Gemini). Transfections were performed using cDNA containing the human MCR-1 receptor (pcDNAI/NEO.hMC1), or MCR-4 (pcCMV.hMC4) receptors. HEK-293 cells are stably transformed with the human MCR-1 and MCR-4 receptors by electroporating 20 μg of plasmid cDNA using a Gene Pulser transfection apparatus (450 V, 960 μF; BioRad, Hercules, Calif.). […]
Peptide concentration-response measurements are made in HEK-293 cells by quantifying cAMP levels using a [8-^3H]-CAMP kit from Amersham. […] Cellular debris was separated from extracted samples by centrifugation, 400 μL aliquots of the supernatant lyophilized, and total cAMP content quantified by isotope counting. […]

[4] = target: T4, MCR-4 (Homo sapiens, UniProt P32245); assay: cAMP concentration-response to α-MSH in HEK-293 cells transfected with human MCR-4; assay type: cell-based; set-up: expressed in transfected cells; conditions: presence and absence of 30 μM antagonist
T4 sequence (P32245 whole entry): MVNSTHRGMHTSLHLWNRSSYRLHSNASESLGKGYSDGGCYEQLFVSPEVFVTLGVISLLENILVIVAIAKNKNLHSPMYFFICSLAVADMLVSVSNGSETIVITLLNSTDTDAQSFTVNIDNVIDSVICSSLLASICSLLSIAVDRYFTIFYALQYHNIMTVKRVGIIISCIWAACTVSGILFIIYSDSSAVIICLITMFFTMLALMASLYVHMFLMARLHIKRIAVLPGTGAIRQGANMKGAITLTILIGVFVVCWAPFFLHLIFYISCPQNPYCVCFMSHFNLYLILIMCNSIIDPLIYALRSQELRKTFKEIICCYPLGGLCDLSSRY
Experimental: A second method for studying MCR antagonists is to use mammalian cells stably transfected with the cDNA for various human MCR.
Human embryonic kidney (HEK-293) cells were maintained in modified Eagle's medium (DMEM/H-16/F-12) with 10% fetal calf serum (FBS), 100 U/mL penicillin “G” and 100 μg/mL streptomycin (P/S; Gemini). Transfections were performed using cDNA containing the human MCR-1 receptor (pcDNAI/NEO.hMC1), or MCR-4 (pcCMV.hMC4) receptors. HEK-293 cells are stably transformed with the human MCR-1 and MCR-4 receptors by electroporating 20 μg of plasmid cDNA using a Gene Pulser transfection apparatus (450 V, 960 μF; BioRad, Hercules, Calif.). After six days, stable MC clonal cell lines were selected by addition of 400 μg/ml G-418 to the medium and kept frozen for future use.
as §1
(§4) HEK-293 cells were maintained and transfected As described in Example 2. […]

[5] = target: T5, MCR-3 (Homo sapiens, UniProt P41968); assay: cAMP concentration-response to α-MSH in HEK-293 cells transfected with human MCR-3; assay type: cell-based; set-up: expressed in transfected cells; conditions: presence and absence of 30 μM antagonist
T5 sequence (P41968 whole entry): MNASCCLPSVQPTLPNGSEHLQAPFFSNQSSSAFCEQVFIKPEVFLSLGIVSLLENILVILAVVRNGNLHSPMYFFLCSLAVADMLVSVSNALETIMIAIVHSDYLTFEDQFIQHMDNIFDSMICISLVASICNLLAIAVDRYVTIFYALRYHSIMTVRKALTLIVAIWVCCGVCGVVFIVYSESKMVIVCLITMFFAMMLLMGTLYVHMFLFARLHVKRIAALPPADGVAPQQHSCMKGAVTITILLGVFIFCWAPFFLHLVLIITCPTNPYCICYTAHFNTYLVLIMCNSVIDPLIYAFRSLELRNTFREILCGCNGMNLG
From the text: as §3
Peptide concentration-response measurements are made in HEK-293 cells by quantifying cAMP levels using a [8-^3H]-CAMP kit from Amersham. Briefly, cells transfected with MC receptors, plated to confluency in 96-well tissue culture plates, are rinsed for 1 hr with 70% (vol/vol) L-15 medium containing 0.5% bovine serum albumin. After a 30 min exposure to test ligands, HEK-293 cells are rinsed twice with ice-cold 70% phosphate-buffered saline (0.07 g/L CaCl2, 0.07 g/L MgCl2.6H2O, 0.14 g/L KH2PO4, 1.51 g/L Na2HPO4.7H2O, 0.14 g/L KCl, 5.6 g/L NaCl, pH 7.4), and intracellular CAMP extracted with 1 mL of 60% (vol/vol) ethanol. Cellular debris was separated from extracted samples by centrifugation, 400 μL aliquots of the supernatant lyophilized, and total cAMP content quantified by isotope counting.
as §4

[6] = test system: dispersion of melanin initiated by norepinephrine, serotonin, vasotocin, PACAP-27; assay: Selectivity: melanin dispersion initiated by other ligands in melanophores; assay type: cell-based, Xenopus laevis; conditions: 30 nM
Experimental: The selectivity of the MC receptor antagonism by dynorphin A(6-12) analogs was examined.
Melanophore responses were determined by measuring absorbance (OD) ratios taken through a monolayer of cells using a FisherBiotec BT2000 Microplate Reader (Pittsburgh, Pa.). Absorbance was measured before and after a 90 minute exposure to test peptides and then expressed as percent of initial absorbance. (Measurements were taken after 60 minutes pretreatment with 10 nM melatonin to initiate readings from an aggregated state.)

[7] = test system: heat-induced edema in the anesthetized rat's paw; assay: Suppression of heat-induced edema in the anesthetized rat's paw (anti-inflammatory); assay type: in vivo
[8] = target: T3, MCR-1; conditions: at concentrations up to 100 nM; Ollmann et al.; cited from earlier work
[9] = target: T5, MCR-3; conditions: Ollmann et al.; cited from earlier work
[10] = target: T4, MCR-4; conditions: Ollmann et al.; cited from earlier work
[11] = test system: atypical MC receptor in Cos-7 cells; assay: cAMP concentration-response to α-MSH in Cos-7 cells; assay type: cell-based
Experimental: as §1, §2

[12] = test system: B16-F1 mouse melanoma cells; conditions: Siegrist et al.; read-out: antiproliferative half-maximal effective concentration; cited from earlier work

Dynorphin A(6-17)
antagonist activity [1]: inactive

CC[C@H](C)[C@H](NC(=O)[C@H](CCCNC(=N)N)NC(=O)[C@H](CCCNC(=N)N)NC(=O)[C@H](CC(C)C)NC(=O)[C@H](Cc1ccccc1)NC(=O)CNC(=O)CN)C(=O)N[C@@H](CCCNC(=N)N)C(=O)N1CCC[C@H]1C(=O)N[C@@H](CCCCN)C(=O)N[C@@H](CC(C)C)C(=O)N[C@@H](CCCCN)C(=O)O [dynorphin A(2-13)]
shift of the concentration-response curve of ACTH-(1-24) to the right ([2]; Y1 cells): approximately 15 fold | Dose ratio from α-MSH dose-response curves [3]: 250±31 | Dose ratio from α-MSH dose-response curves [4]: 147±13 | Dose ratio from α-MSH dose-response curves [5]: 128±44

CSCC[C@@H]1NC(=O)[C@H](C)NC(=O)[C@H]([C@@H](C)O)NC(=O)CNC(=O)[C@H](CC(C)C)NC(=O)[C@H](CCCCN)NC(=O)[C@H](CCCNC(=N)N)NC(=O)[C@@H]2CSSC[C@@H]3NC(=O)[C@@H]4CCCN4C(=O)[C@H](C(C)C)NC(=O)[C@H](CCC(N)=O)NC(=O)[C@H](CCC(N)=O)NC(=O)CNC(=O)[C@H](CC(C)C)NC(=O)[C@@H]4CSSC[C@H](NC(=O)[C@H]([C@@H](C)O)NC(=O)[C@H](C)NC(=O)[C@H](CSSC[C@@H](C(=O)N[C@@H](CO)C(=O)N[C@@H](CCCNC(=N)N)C(=O)N[C@H](C(N)=O)[C@@H](C)O)NC(=O)[C@@H]5CCCN5C(=O)[C@H](CC(N)=O)NC1=O)NC(=O)[C@@H]1CCCN1C(=O)[C@H](CC(=O)O)NC(=O)[C@H](CSSC[C@H](NC(=O)[C@H](CCCNC(=N)N)NC(=O)[C@H](CCCNC(=N)N)NC(=O)[C@H](CO)NC(=O)[C@@H](N)CO)C(=O)N[C@@H](C(C)C)C(=O)N[C@@H](CCCNC(=N)N)C(=O)N[C@@H](CC(C)C)C(=O)N[C@@H](Cc1c[nH]cn1)C(=O)N[C@@H](CCC(=O)O)C(=O)N[C@@H](CO)C(=O)N4)NC3=O)C(=O)N[C@@H](Cc1ccc(O)cc1)C(=O)N[C@H]1CSSC[C@H](NC(=O)[C@H](Cc3ccccc3)NC(=O)[C@H](C)NC(=O)[C@H](CC(N)=O)NC(=O)[C@H](Cc3ccccc3)NC(=O)[C@H](Cc3ccccc3)NC(=O)[C@H](CCCNC(=N)N)NC1=O)C(=O)N[C@@H](Cc1ccc(O)cc1)C(=O)N2 [ARP-(83-132)-NH2, SSRRCVRL HESCLGQQVPCCDPCATCYCRFFNAFCYCRKLGTAMNPCSRT]
effect on concentration-response curves evoked with norepinephrine, serotonin, PACAP-27, and Arg8-vasotocin [6]: no effect

Dynorphin A(2-17) [reference compound]
anti-edema activity ([7]; in words): at least twice more active | IC50 ([1]; against 600 pM α-MSH): 190 nM

agouti-related protein (ARP): agouti-related protein cloned from non-epidermal tissues (SSRRCVRLHESCLGQQVPCCDPCATCYCRFFNAFCYCRKLGTAMNPCSRT; UniProt O00253 83-132, looked up)
effect on MCR-1 [8]: little effect | inhibition for MCR-3 [9]: dose dependent inhibition | inhibition for MCR-4 [10]: dose dependent inhibition

CC[C@H](C)[C@H](NC(=O)[C@H](CCCNC(=N)N)NC(=O)[C@H](CCCNC(=N)N)NC(=O)[C@H](CC(C)C)NC(=O)[C@H](Cc1ccccc1)NC(=O)CNC(=O)CNC(=O)[C@@H](N)Cc1ccc(O)cc1)C(=O)N[C@@H](CCCNC(=N)N)C(=O)N1CCC[C@H]1C(=O)N[C@@H](CCCCN)C(=O)N[C@@H](CC(C)C)C(=O)N[C@@H](CCCCN)C(N)=O [dynorphin A(1-13)-NH2]
effect on basal or forskolin (3 μM) stimulated cAMP production ([2]; Y1 cells): did not significantly affect | shift of the concentration-response curve of ACTH-(1-24) to the right ([2]; Y1 cells): ~200 fold | estimated Kd ([2]; from shift in the ACTH concentration-response curve): submicromolar range | shift of α-MSH EC50 ([11]; 30 μM): ~50 fold | Kd ([11]; read-out: K4): ~1000 nM

α-MSH
stimulating cAMP accumulation in Y1 cells ([2]; up to concentrations of 10 μM): not effective | EC50 ([11]; read-out: EC50 of α-MSH for cAMP production): ~80 nM

CC[C@H](C)[C@H](NC(=O)[C@H](CCCNC(=N)N)NC(=O)[C@H](CCCNC(=N)N)NC(=O)c1cccc(OC)c1)C(=O)N[C@@H](C)C(=O)N1CCC[C@H]1C(=O)N[C@@H](CCCCN)C(=O)N[C@@H](CC(C)C)C(N)=O [SQW-10, m-anisoyl-Arg-Arg-Ile-Ala-Pro-Lys-Leu-amide] ({Benzoyl(3-OMe)}-RRIAPKL-NH2)
Anti-Inflammatory ED50 ([7]; suppression of heat-induced edema in the anesthetized rat's paw, i): 1.02 µmol/kg

B1: ASP: agouti-signaling protein, MCR antagonist elaborated by hair follicle melanocytes (protein, UniProt P42127 23-132, looked up)
Agouti-signaling protein: HLPPEEKLRDDRSLRSNSSVNLLDVPSVSIVALNKKSKQIGRKAAEKKRSSKKEASMKKVVRPRTPLSAPCVATRNSCKPPAPACCDPCASCQCRFFRSACSCRVLSLNC
EC50 [12]: 13 nM
